According to PubChem BioAssay (NCI):
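Grown in 96-well plates, cells were treated for 48 hours with each compound at five concentrations. Insufficient inhibition: endpoint recorded as highest concentration tested. TGI denotes the concentration required for complete inhibition of growth.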

Tests used:
Assay in all cases: NCI tumour cell line growth inhibition, 48 h
786-0 renal = tested on: 786-0 renal
A498 renal = tested on: A498 renal
A549 NSCLC = tested on: A549 NSCLC
ACHN renal = tested on: ACHN renal
BT-549 breast = tested on: BT-549 breast
CAKI-1 renal = tested on: CAKI-1 renal
CCRF-CEM leukemia = tested on: CCRF-CEM leukemia
COLO 205 colon = tested on: COLO 205 colon
DU-145 prostate = tested on: DU-145 prostate
EKVX NSCLC = tested on: EKVX NSCLC
HCC-2998 colon = tested on: HCC-2998 colon
HCT-116 colon = tested on: HCT-116 colon
HCT-15 colon = tested on: HCT-15 colon
HL-60(TB) leukemia = tested on: HL-60(TB) leukemia
HOP-62 NSCLC = tested on: HOP-62 NSCLC
HOP-92 NSCLC = tested on: HOP-92 NSCLC
HS 578T breast = tested on: HS 578T breast
HT29 colon = tested on: HT29 colon
IGROV1 ovarian = tested on: IGROV1 ovarian
K-562 leukemia = tested on: K-562 leukemia
KM12 colon = tested on: KM12 colon
LOX IMVI melanoma = tested on: LOX IMVI melanoma
M14 melanoma = tested on: M14 melanoma
MALME-3M melanoma = tested on: MALME-3M melanoma
MCF7 breast = tested on: MCF7 breast
MDA-MB-231 breast = tested on: MDA-MB-231 breast
MDA-MB-435 = tested on: MDA-MB-435
MDA-N = tested on: MDA-N
MOLT-4 leukemia = tested on: MOLT-4 leukemia
NCI-H226 lung = tested on: NCI-H226 lung
NCI-H23 lung = tested on: NCI-H23 lung
NCI-H460 lung = tested on: NCI-H460 lung
NCI-H522 lung = tested on: NCI-H522 lung
NCI/ADR-RES ovarian = tested on: NCI/ADR-RES ovarian
OVCAR-3 ovarian = tested on: OVCAR-3 ovarian
OVCAR-4 ovarian = tested on: OVCAR-4 ovarian
OVCAR-5 ovarian = tested on: OVCAR-5 ovarian
OVCAR-8 ovarian = tested on: OVCAR-8 ovarian
PC-3 prostate = tested on: PC-3 prostate
RPMI-8226 leukemia = tested on: RPMI-8226 leukemia
RXF 393 renal = tested on: RXF 393 renal
SF-268 CNS = tested on: SF-268 CNS
SF-295 CNS = tested on: SF-295 CNS
SF-539 CNS = tested on: SF-539 CNS
SK-MEL-2 melanoma = tested on: SK-MEL-2 melanoma
SK-MEL-28 melanoma = tested on: SK-MEL-28 melanoma
SK-MEL-5 melanoma = tested on: SK-MEL-5 melanoma
SK-OV-3 ovarian = tested on: SK-OV-3 ovarian
SN12C renal = tested on: SN12C renal
SNB-19 CNS = tested on: SNB-19 CNS
SNB-75 CNS = tested on: SNB-75 CNS
SR leukemia = tested on: SR leukemia
SW-620 colon = tested on: SW-620 colon
T-47D breast = tested on: T-47D breast
TK-10 renal = tested on: TK-10 renal
U251 CNS = tested on: U251 CNS
UACC-257 melanoma = tested on: UACC-257 melanoma
UACC-62 melanoma = tested on: UACC-62 melanoma
UO-31 renal = tested on: UO-31 renal
DLD-1 colon = tested on: DLD-1 colon
DMS 114 small cell lung = tested on: DMS 114 small cell lung
DMS 273 small cell lung = tested on: DMS 273 small cell lung
HOP-18 NSCLC = tested on: HOP-18 NSCLC
KM20L2 colon = tested on: KM20L2 colon
M19-MEL melanoma = tested on: M19-MEL melanoma
SNB-78 CNS = tested on: SNB-78 CNS

Structure (SMILES): O=c1[nH]c2ccc(CC(=S)N3CCN(c4ccccc4)CC3)cc2o1
- TGI (786-0 renal): > 100 µM
- TGI (A498 renal): > 100 µM
- TGI (A549 NSCLC): > 100 µM
- TGI (ACHN renal): > 100 µM
- TGI (BT-549 breast): > 100 µM
- TGI (CAKI-1 renal): > 100 µM
- TGI (CCRF-CEM leukemia): > 100 µM
- TGI (COLO 205 colon): > 100 µM
- TGI (DU-145 prostate): > 100 µM
- TGI (EKVX NSCLC): > 100 µM
- TGI (HCC-2998 colon): > 100 µM
- TGI (HCT-116 colon): > 100 µM
- TGI (HCT-15 colon): > 100 µM
- TGI (HL-60(TB) leukemia): > 100 µM
- TGI (HOP-62 NSCLC): > 100 µM
- TGI (HOP-92 NSCLC): > 100 µM
- TGI (HS 578T breast): > 100 µM
- TGI (HT29 colon): > 100 µM
- TGI (IGROV1 ovarian): > 100 µM
- TGI (K-562 leukemia): > 100 µM
- TGI (KM12 colon): > 100 µM
- TGI (LOX IMVI melanoma): > 100 µM
- TGI (M14 melanoma): > 100 µM
- TGI (MALME-3M melanoma): > 100 µM
- TGI (MCF7 breast): > 100 µM
- TGI (MDA-MB-231 breast): > 100 µM
- TGI (MDA-MB-435): > 100 µM
- TGI (MDA-N): > 76.7 µM
- TGI (MOLT-4 leukemia): > 100 µM
- TGI (NCI-H226 lung): > 100 µM
- TGI (NCI-H23 lung): > 100 µM
- TGI (NCI-H460 lung): > 100 µM
- TGI (NCI-H522 lung): > 100 µM
- TGI (NCI/ADR-RES ovarian): > 100 µM
- TGI (OVCAR-3 ovarian): > 100 µM
- TGI (OVCAR-4 ovarian): > 100 µM
- TGI (OVCAR-5 ovarian): > 100 µM
- TGI (OVCAR-8 ovarian): > 100 µM
- TGI (PC-3 prostate): > 100 µM
- TGI (RPMI-8226 leukemia): > 100 µM
- TGI (RXF 393 renal): > 100 µM
- TGI (SF-268 CNS): > 100 µM
- TGI (SF-295 CNS): > 100 µM
- TGI (SF-539 CNS): > 100 µM
- TGI (SK-MEL-2 melanoma): > 100 µM
- TGI (SK-MEL-28 melanoma): > 100 µM
- TGI (SK-MEL-5 melanoma): > 100 µM
- TGI (SK-OV-3 ovarian): > 100 µM
- TGI (SN12C renal): > 100 µM
- TGI (SNB-19 CNS): > 100 µM
- TGI (SNB-75 CNS): > 94.7 µM
- TGI (SR leukemia): > 100 µM
- TGI (SW-620 colon): > 100 µM
- TGI (T-47D breast): > 100 µM
- TGI (TK-10 renal): > 100 µM
- TGI (U251 CNS): > 100 µM
- TGI (UACC-257 melanoma): > 100 µM
- TGI (UACC-62 melanoma): > 100 µM
- TGI (UO-31 renal): > 100 µM

Structure (SMILES): O=S1c2ccccc2N=C(c2ccc(Cl)cc2)CC1c1cccs1 (centres undefined)
- TGI (786-0 renal): 28.2 µM
- TGI (A498 renal): > 100 µM
- TGI (A549 NSCLC): > 100 µM
- TGI (ACHN renal): > 100 µM
- TGI (CAKI-1 renal): > 100 µM
- TGI (CCRF-CEM leukemia): 86.5 µM
- TGI (COLO 205 colon): 41 µM
- TGI (DLD-1 colon): 24.9 µM
- TGI (DMS 114 small cell lung): 39.5 µM
- TGI (DMS 273 small cell lung): 28.2 µM
- TGI (EKVX NSCLC): > 100 µM
- TGI (HCC-2998 colon): 36.9 µM
- TGI (HCT-116 colon): 24.3 µM
- TGI (HCT-15 colon): 29.1 µM
- TGI (HL-60(TB) leukemia): 45.1 µM
- TGI (HOP-18 NSCLC): 71.1 µM
- TGI (HOP-62 NSCLC): > 100 µM
- TGI (HOP-92 NSCLC): 72.5 µM
- TGI (HT29 colon): 49.4 µM
- TGI (IGROV1 ovarian): 35.7 µM
- TGI (K-562 leukemia): 61 µM
- TGI (KM12 colon): 33.8 µM
- TGI (KM20L2 colon): 59.6 µM
- TGI (LOX IMVI melanoma): 25.9 µM
- TGI (M14 melanoma): 37.4 µM
- TGI (M19-MEL melanoma): 39 µM
- TGI (MALME-3M melanoma): > 100 µM
- TGI (MOLT-4 leukemia): 98.7 µM
- TGI (NCI-H226 lung): > 100 µM
- TGI (NCI-H23 lung): 85.3 µM
- TGI (NCI-H460 lung): > 100 µM
- TGI (NCI-H522 lung): 83.5 µM
- TGI (OVCAR-3 ovarian): 17.3 µM
- TGI (OVCAR-4 ovarian): 57.2 µM
- TGI (OVCAR-5 ovarian): 61.3 µM
- TGI (OVCAR-8 ovarian): 38.4 µM
- TGI (RPMI-8226 leukemia): 56.2 µM
- TGI (RXF 393 renal): 47.6 µM
- TGI (SF-268 CNS): > 100 µM
- TGI (SF-295 CNS): 39.5 µM
- TGI (SF-539 CNS): 32.5 µM
- TGI (SK-MEL-28 melanoma): 38.4 µM
- TGI (SK-MEL-5 melanoma): 36.9 µM
- TGI (SK-OV-3 ovarian): 85.4 µM
- TGI (SN12C renal): 38 µM
- TGI (SNB-19 CNS): 45.2 µM
- TGI (SNB-75 CNS): > 100 µM
- TGI (SNB-78 CNS): > 100 µM
- TGI (SR leukemia): 43.1 µM
- TGI (SW-620 colon): 27.5 µM
- TGI (TK-10 renal): > 100 µM
- TGI (U251 CNS): 28.9 µM
- TGI (UACC-257 melanoma): 63.5 µM
- TGI (UACC-62 melanoma): 64.1 µM
- TGI (UO-31 renal): 51.6 µM
